According to patent US20130157258A1, “HCV NS5B PROTEASE MUTANTS” (VERTEX PHARMACEUTICALS INCORPORATED, priority 2010, published 2013):
Entries after “also recorded” stand apart in the source; their conditions may differ.

What was measured:
M423I HCV replicon = experiment: HCV replicon cell assay, real-time PCR, M423I; type: cell-based, HCV genotype 1b
Description: (§1) All mutations were introduced into the pFKI389/NS3-3′/adapt vector (Krieger et al., J. Virol., 75, 4614-4624 (2001); Lohmann et al., J. Virol., 77, 3007-3019 (2003)) by PCR-based site-directed mutagenesis and standard recombinant DNA technologies. The pFKI389/NS3-3′/adapt vector is a “cell culture adapted HCV replicon” containing a R465G mutation within the NS5B gene, and was obtained from Reblikon GmbH, Gau-Odernheim, Germany. The “cell culture adapted replicon” was chosen instead of the wild-type replicon because the R465G mutation was found in all of the progeny RNA isolated from 9.13 replicon cells used in drug susceptibility studies to compare the fold shift in IC50s (described further below). The adaptive R465G mutation in the NS5B region was previously reported (Krieger et al., supra) and found to be very efficient in generating replicon cell colonies after RNA transfection into Huh-7 cells. […]
(§2) The 9.13 replicon cells and the stable recombinant replicon cells were seeded in a 12-well culture dish at a density of 3×10^4 cells/well in a volume of 1 mL. […] The inhibitory effect of agents against wild-type replicon cells, resistant colonies, or recombinant replicon cells was determined by monitoring the levels of HCV RNA, normalized to cellular 18S ribosomal RNA, by real time PCR using the ABI PRISM® 7700 Sequence Detection System (Applied Biosystems, Foster City, Calif., USA). […]

HCV genotype 1 = experiment: Phase Ib/IIa multicenter, randomized, dose-ascending study, 3 days of dosing; type: in vivo, human
Description: VX-222 is a non-nucleoside hepatitis C virus (HCV) NS5B polymerase inhibitor with potent in vitro activity. Safety, antiviral activity, and viral sequences were assessed in a phase Ib/IIa multicenter, randomized, dose-ascending study in genotype 1, HCV-infected patients.
(§3) Treatment-naïve HCV genotype 1 patients (n=32) were randomized to receive VX-222 at doses of 250 mg BID, 500 mg BID, 750 mg BID, or 1500 mg QD for 3 days, in a treatment:placebo ratio of 6:2 (8 patients/cohort). Pegylated interferon (Peg-IFN) and ribavirin (RBV) for 48 weeks was offered to patients at the end of the study. Sequencing of NS5B was performed at baseline (Day 1), end of dosing (Day 3), and at follow-up timepoints (Days 4, 5, 10, 20, and 60). Phenotypic data (fold change in IC50 from wildtype) of substitutions selected in patients during dosing was determined using a replicon system.

[1] = tested on: HCV NS5B substitution at position 422 (R422K); experiment: Phenotypic analysis in replicon system, substitution at position 422; type: cell-based
Description: as §3

[2] = tested on: HCV NS5B substitution at position 486 (A486I/V); experiment: Phenotypic analysis in replicon system, substitution at position 486; type: cell-based
Description: as §3

[3] = tested on: HCV NS5B substitution at position 482 (I482L/N/T); experiment: Phenotypic analysis in replicon system, substitution at position 482; type: cell-based
Description: as §3

L419S HCV replicon = experiment: HCV replicon cell assay, real-time PCR, L419S resistant colony; type: cell-based; settings: Hepatitis C virus, 96 h
Description: The 9.13 replicon cells and the stable recombinant replicon cells were seeded in a 12-well culture dish at a density of 3×10^4 cells/well in a volume of 1 mL. The cell culture media used for the assay was DMEM supplemented with 10% fetal bovine serum, 100 IU/mL of penicillin, 100 μg/mL streptomycin, non-essential amino acids, 2 mM glutamine and 10 mM HEPES. After incubating for 3-4 hours, candidate agents (drugs) were added at various concentrations for a final volume of 2 mL of the same culture media. Cells were incubated for 4 days at 37° C. with 5% CO2. Thereafter, total RNA (cellular and viral origin) was extracted using the RNeasy kit (Qiagen Inc.) according to the manufacturer's protocol. cDNA synthesis was performed using the MMLV reverse transcriptase and random hexamer primer (Invitrogen). The inhibitory effect of agents against wild-type replicon cells, resistant colonies, or recombinant replicon cells was determined by monitoring the levels of HCV RNA, normalized to cellular 18S ribosomal RNA, by real time PCR using the ABI PRISM® 7700 Sequence Detection System (Applied Biosystems, Foster City, Calif., USA). […]
(§4) Media and drugs were replaced twice a week over the course of the experiment. Three to four weeks following the initial plating, resistant clones of cells (colonies) were counted and randomly picked for culture or for direct RNA extraction. […]

M423T HCV replicon = experiment: HCV replicon cell assay, real-time PCR, M423T; type: cell-based, HCV genotype 1b
Description: as §1, §2

L419M HCV replicon = experiment: HCV replicon cell assay, real-time PCR, L419M; type: cell-based, HCV genotype 1b
Description: as §1, §2

[4] = tested on: recombinant mutant replicons (L419M, M423V, M423T, M423I, I482L, A486V, V494A); experiment: HCV replicon cell assay, real-time PCR, all seven recombinant mutant replicons; type: cell-based, HCV genotype 1b
Description: as §1, §2

[5] = tested on: HCV NS5B substitution at position 423 (M423I/T/V); experiment: Phenotypic analysis in replicon system, substitution at position 423; type: cell-based
Description: as §3

[6] = tested on: HCV NS5B variants (L419C/M/P/S/V, R422K, M423I/T/V, I482L/N/T, A486I/V, V494A); experiment: Phenotypic analysis of substitutions selected in patients during dosing, replicon system; type: cell-based
Description: as §3

[7] = tested on: genotype 1b replicon cells (9.13 replicon cells); experiment: Selection of drug-resistant HCV replicon colonies under G418; type: cell-based, HCV genotype 1b
Description: Drug-resistant HCV replicons were selected as previously described. (See, e.g., Amparo et al., 46th Conference on Antimicrobial Agents and Chemotherapy (ICAAC). 2006, Abstract 1273; Le Pogam et al., J. Virol., 80(12), 6146-54 (2006); Lin et al., J. Biol. Chem., 279(17), 17508-17514 (2004); Lu et al., Antimicrob. Agents Chemother., 48(6), 2260-2266 (2004); Trozzi et al., J. Virol., 77, 3669-3679 (2003)). Briefly, approximately 2.5×10^4 genotype 1a replicon cells (W11.8 replicon cells at passage 13) or genotype 1b replicon cells (9.13 replicon cells at passage greater than 100) were plated in 75 cm^2 cell culture flasks (Falcon 353136) in complete culture medium with high concentration of G418 (600 μg/mL). […]
as §4
Mutant replicons resistant to specific inhibitors were made using replicon constructs expressing the neomycin phosphotransferase gene (NPT). […] Cells containing mutant replicons with decreased sensitivity to an inhibitor give rise to colonies that can be counted, isolated, expanded and characterized.

[8] = tested on: HCV NS5B substitution at position 419 (L419C/M/P/S/V); experiment: Phenotypic analysis in replicon system, substitution at position 419; type: cell-based
Description: as §3

I482L HCV replicon = experiment: HCV replicon cell assay, real-time PCR, I482L; type: cell-based, HCV genotype 1b
Description: as §1, §2

[9] = tested on: HCV NS5B substitution at position 494 (V494A); experiment: Phenotypic analysis in replicon system, substitution at position 494; type: cell-based
Description: as §3

M423V HCV replicon = experiment: HCV replicon cell assay, real-time PCR, M423V; type: cell-based, HCV genotype 1b
Description: as §1, §2

A486V HCV replicon = experiment: HCV replicon cell assay, real-time PCR, A486V; type: cell-based, HCV genotype 1b
Description: as §1, §2

V494A HCV replicon = experiment: HCV replicon cell assay, real-time PCR, V494A; type: cell-based, HCV genotype 1b
Description: as §1, §2

[10] = Hepatitis C virus, 96 h, 4 days, HCV RNA by real time PCR
[11] = 250-750 mg BID or 1500 mg QD for 3 days, patients

CC1CCC(C(=O)N(c2cc(C#CC(C)(C)C)sc2C(=O)O)C2CCC(O)CC2)CC1 (stereo not drawn) [VX-222]
IC50 Fold-Change vs Wild-Type Replicon (M423I HCV replicon): 7.1 fold and ≈7.1 fold | IC50 (M423I HCV replicon; [10]): 77.2 nM | mean HCV RNA decline (HCV genotype 1; 250 mg (BID), after three days of dosing, treatment-naive genotype 1 patients): 3.1 log 10 | mean HCV RNA decline (HCV genotype 1; 500 mg (BID), after three days of dosing, treatment-naive genotype 1 patients): 3.4 log 10 | mean HCV RNA decline (HCV genotype 1; 750 mg (BID), after three days of dosing, treatment-naive genotype 1 patients): 3.2 log 10 | mean HCV RNA decline (HCV genotype 1; 1500 mg (QD), after three days of dosing, treatment-naive genotype 1 patients): 3.4 log 10 | most common reported adverse effects (AEs) (HCV genotype 1; [11]): diarrhea, headache, nausea, fatigue and fever | severity of the majority of AEs (HCV genotype 1; [11]): mild in severity | mean HCV RNA decline (HCV genotype 1; all four dose groups): greater than 3 log 10 | fold change in IC50 from wildtype [1]: ~74 fold | fold change in IC50 from wildtype [2]: ~50 fold | fold change in IC50 from wildtype [3]: ~26 fold | IC50 (L419S HCV replicon): > 2000 nM | IC50 Fold-Change vs Wild-Type Replicon (M423T HCV replicon): 29 fold and ≈29 fold | IC50 (M423T HCV replicon; [10]): 319 nM | IC50 Fold-Change vs Wild-Type Replicon (L419M HCV replicon): 80 fold and ≈80 fold | IC50 (L419M HCV replicon; [10]): 900 nM | fold increase of IC50 vs wild-type replicon cells [4]: 6- to 80 fold | fold change in IC50 from wildtype [5]: seven to ten | fold change in IC50 from wildtype ([6]; range over all variants selected in patients): 6-80 fold | resistant colony formation ([7]; VX-222 concentration of about 300 fold of the IC50, G418 selection): No colony could be readily detected | frequency of resistant clones ([7]; equivalent IC50-fold concentration of VX-222, genotype 1b vs genotype 1a replicon cell line, not side by side): higher for the genotype 1b replicon cell line than for the genotype 1a replicon cell line | fold change in IC50 from wildtype [8]: 20-80 fold | IC50 Fold-Change vs Wild-Type Replicon (I482L HCV replicon): ≈26 fold | IC50 (I482L HCV replicon; [10]): 290 nM | fold change in IC50 from wildtype [9]: six | IC50 Fold-Change vs Wild-Type Replicon (M423V HCV replicon): 10 fold and ≈10 fold | IC50 (M423V HCV replicon; [10]): 110 nM | IC50 Fold-Change vs Wild-Type Replicon (A486V HCV replicon): 50 fold and ≈50 fold | IC50 (A486V HCV replicon; [10]): 843 nM | IC50 Fold-Change vs Wild-Type Replicon (V494A HCV replicon): ≈5.9 fold | IC50 (V494A HCV replicon; [10]): 132 nM

NC(=O)c1ncn([C@@H]2O[C@H](CO)[C@@H](O)[C@H]2O)n1 [RBV, ribavirin]
sensitivity of VX-222-selected variants to the agent ([6]; in vitro): did not have reduced sensitivity; also recorded: remained sensitive
